From paper PMC12694606, “DNA-programmed bispecific peptide assemblies for delivering cytotoxic payload to cells expressing EGFR and MET receptors” (RSC Chemical Biology, 2025)
Non-standard residues stand in square brackets, D forms with d. Residues, ends and D or L forms follow the SMILES beside them. *: point of attachment. Dolaproine = CO[C@@H]([C@@H]1CCCN1)[C@@H](C)C(=O)O; Dil = CC[C@H](C)[C@H](NC)[C@@H](CC(=O)O)OC; X1 = C[C@@H](N*)[C@@H](O)c1ccccc1; NMeV = CN[C@H](C(=O)O)C(C)C

Test system: A549 cells (EGFR+, MET+)
Test: AlamarBlue cell viability assay, A549 cells
Experimental: Fig. 5 (a) Arming DNA-template strands in OS21 and OS21+3 with the toxin vcMMAE. […] Viability was normalized to PBS treatment (100% value) and ethanol treatment (0% value). Conditions: 10^4 cells per well in 100 µL medium and propagated 24 h to a confluency of ca. 85% cells, probes were incubated for 10 min in PBS, 37 °C, 5% CO2; AlamarBlue assay in full medium, 6 h.
A549 cells were incubated with the oligonucleotide assemblies for ten minutes. Cell viability was assessed six hours later using an AlamarBlue assay. […] For comparison, we assessed the viability response to treatment with MMAE at a 100 nM concentration in unconjugated form. […] Next, the cells were treated in the presence of HGF.
A549 cells were seeded into wells of a 96 well-microtiter plate (100 μL in respective medium)
at a density of 10 4 cells/well. Cells were allowed to grow for 24 h to a confluency of ca. 85%.
The medium was removed and wells carefully washed once with PBS (preheated at 37°C). The
probes were added at specific concentrations in PBS with or without HGF (100 ng/mL). The
cells were incubated at 37°C, 5% CO 2 for 10 minutes. After one careful wash with PBS, 10%
alamar blue was added, and the fluorescence signal (590 nm) was recorded after 6 hours using
Cytotoxicity of cathepsin B-cleavable vcMMAE-DNA-peptide complex with different […]

Compound | cell viability (100 nM, unconjugated form, 10 min in PBS, AlamarBlue 6 h (Fig. S17)) [%] | cell viability, control experiments (in words) (Fig. S17, 10 min in PBS, AlamarBlue 6 h)
CC[C@H](C)[C@@H]([C@@H](CC(=O)N1CCC[C@H]1[C@H](OC)[C@@H](C)C(=O)N[C@H](C)[C@@H](O)c1ccccc1)OC)N(C)C(=O)[C@@H](NC(=O)[C@@H](NC)C(C)C)C(C)C [MMAE, monomethyl auristatin E] (H-[NMeV]V[Dil][Dolaproine]-X1) | 79 | 
HGF: hepatocyte growth factor, used at 100 ng/mL to induce MET internalization |  | unaffected
